Assay results from patent EP1202628B1, “NOVEL HYPOXANTHINE AND THIOHYPOXANTHINE COMPOUNDS” (EURO-CELTIQUE S.A., priority 1999, dated 2001).

Target: T1, PDE V (Homo sapiens, UniProt O76074)
T1 construct: Fractions that contain PDE V are pooled and dialyzed overnight; from tissue
Assay: Type V phosphodiesterase inhibition (hydrolysis of [3H]-cyclic GMP)
Format: biochemical
Settings: enzyme isolated from platelets
Description: Protocol for Enzyme Isloation: The Type V PDE is isolated using a procedure similar to that previously described by Weishaar et al., Hypertension 15:528, (1990). Briefly, 1-2 units of platelets are suspended in an equal volume of buffer A (20 mM Tris-HCl, pH 7.5, containing 2 mM magnesium acetate, I mM dithiothreitol, and 5 mM Na2EDTA) using a polytron. The proteinase inhibitor phenylmethylsulfonyl fluoride (PMSF) are also included in this buffer at a final concentration of 200 uM. This and all subsequent procedures are performed at 0-4°C. The homogenate is then centrifuged at 100,000 rpm for 60 minutes. The supernatant is then removed and filtered through four layers of gauze and applied to a DEAE-Trisacryl M column. The column is washed with several bed volumes of buffer B (20 mM Tris-HCl, pH 7.5, containing 2 mM magnesium acetate, 1 mM dithiothreitol, and […]) and eluted by two successive linear NaCl gradients (0.05-0.15 M, 300 ml total; 0.15-0.40 M, 200 ml total). Five ml fractions are collected and assayed for cyclic AMP and cyclic GMP PDE activity. Fractions that contain PDE V are pooled and dialyzed overnight against 4 L of buffer C (20 mM Tris-HCl, pH 7.5, containing 2 mM magnesium acetate and proteinase inhibitors). The dialyzed PDE V is then concentrated to 10% of the original volume, diluted to 50% with ethylene glycol monoethyl ether and stored at -20°C. PDE V can typically be retained for up to four weeks with little or no loss of activity.
Measuring Type V PDE Activity: Enzyme activity is assessed by measuring the hydrolysis of [^3H]-cyclic GMP, as described by Thompson et al. (Thompson, W.J., Teraski, W.L., Epstein, P.N., Strada, S.J.: Adv. Cyclic Nucleotide Res. 10:69, 1979). The cyclic GMP concentration used in this assay is 0.2 uM, which approximates to the Km value. Protein concentration is adjusted to ensure that no more than 15% of the available substrate is hydrolyzed during the incubation period.
All test compounds are dissolved in dimethyl sulfoxide (final concentration of 2.5%). This concentration of dimethyl sulfoxide inhibits enzyme activity by approximately 10%. The reference Type V PDE inhibitor zaprinast is evaluated with each assay.
The compounds are tested over concentration range: 0.1, 1, 10, 100 uM (n=1), and IC50 determinations are made using 5 appropriate concentrations (n=2).

SMILES | IC50 [µM]
COc1ccc(Cn2cnc(=O)c3[nH]c(C(C)C)nc32)cc1OC [3-(3,4-Dimethoxy-benzyl)-8-(1-methyl-ethyl)-hypoxanthine] | 10.6
COc1ccc(Cn2cnc(=O)c3[nH]c(C(C)(C)OCc4ccc(F)cc4)nc32)cc1OC [3-(3,4-Dimethoxybenzyl)-8-(1-(4-fluorobenzyloxy)-1-methyl-ethyl)-hypoxanthine] | 35.8
CC(C)c1nc2c([nH]1)c(=O)ncn2Cc1cccc(Cl)c1 [3-(3-Chloro-benzyl)-8-(1-methyl-ethyl)-hypoxanthine] | 6.32
COc1ccc(Cn2cnc(=O)c3[nH]c(C(C)(C)OCc4ccc(F)cc4)nc32)cc1OC1CCCC1 [3-(3-Cyclopentyloxy-4-methoxy-benzyl)-8-(1-(4-fluorobenzyloxy)-1-methyl-ethyl)-hypoxanthine] | 14.5
COc1ccc(Cn2cnc(=O)c3[nH]c(C(C)(C)O)nc32)cc1OC1CCCC1 [3-(3-Cyclopentyloxy-4-methoxy-benzyl)-8-(1-hydroxy-1-methyl-ethyl)-hypoxanthine] | 193
COc1ccc(Cn2cnc(=O)c3[nH]c(C(C)C)nc32)cc1OC1CCCC1 [3-(3-Cyclopentyloxy-4-methoxy-benzyl)-8-isopropyl-hypoxanthine] | 49
COc1ccc(Cn2cnc(=O)c3[nH]c(C(C)(C)OCc4ccccc4)nc32)cc1OCc1ccccc1 [3-(3-benzyloxy-4-methoxy-benzyl)-8-(1-benzyloxy-1-methyl-ethyl)-hypoxanthine] | 12.5
CC(C)c1nc2c([nH]1)c(=O)ncn2Cc1ccc(Cl)cc1 [3-(4-Chloro-benzyl)-8-(1-methyl-ethyl)-hypoxanthine] | 7.6
COc1ccc(Cn2cnc(=O)c3[nH]c(C(C)(C)OCc4ccccc4)nc32)cc1OC [8-(1-Benzyloxy-1-methyl-ethyl)-3-(3,4-dimethoxybenzyl)-hypoxanthine] | 10
COc1ccc(Cn2cnc(=O)c3[nH]c(C(C)(C)OCc4ccccc4)nc32)cc1OC1CCCC1 [8-(1-benzyloxy-1-methyl-ethyl)-3-(3-cyclopentyloxy-4-methoxy-benzyl)-hypoxanthine] | 8.28
COc1ccc(Cn2cnc(=O)c3[nH]c(COCc4ccccc4)nc32)cc1OC1CCCC1 [8-Benzyloxymethyl-3-(3-cyclopentyloxy-4-methoxy-benzyl)-hypoxanthine] | 7.53
